Values quoted from earlier work as cited in patent publication US11559495B1, “Icariin nano-pharmaceutical formulation” (King Abdulaziz University, priority 2022, dated 2023).

Key:
[1] = target: cGMP-specific phosphodiesterase type 5 (PDE5) (Homo sapiens, UniProt O76074)
MAO-B = target: T1, MAO-B (Homo sapiens, UniProt P27338)
T1 sequence (P27338 1-520): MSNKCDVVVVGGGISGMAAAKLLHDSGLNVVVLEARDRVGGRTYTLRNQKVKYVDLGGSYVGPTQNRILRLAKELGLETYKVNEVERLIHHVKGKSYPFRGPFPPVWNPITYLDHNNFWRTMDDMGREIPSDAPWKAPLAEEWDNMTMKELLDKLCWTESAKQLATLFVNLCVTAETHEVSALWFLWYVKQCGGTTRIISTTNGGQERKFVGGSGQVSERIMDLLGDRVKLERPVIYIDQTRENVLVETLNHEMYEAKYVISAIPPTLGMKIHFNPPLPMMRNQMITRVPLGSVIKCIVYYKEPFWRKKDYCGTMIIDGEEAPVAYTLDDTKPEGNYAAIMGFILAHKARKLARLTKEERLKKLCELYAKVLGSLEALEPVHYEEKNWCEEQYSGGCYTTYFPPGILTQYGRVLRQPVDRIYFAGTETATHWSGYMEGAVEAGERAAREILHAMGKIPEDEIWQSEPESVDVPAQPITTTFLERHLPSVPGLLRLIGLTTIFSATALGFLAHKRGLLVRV

MAO-A = target: T2, MAO-A (Homo sapiens, UniProt P21397)
T2 sequence (P21397 1-527): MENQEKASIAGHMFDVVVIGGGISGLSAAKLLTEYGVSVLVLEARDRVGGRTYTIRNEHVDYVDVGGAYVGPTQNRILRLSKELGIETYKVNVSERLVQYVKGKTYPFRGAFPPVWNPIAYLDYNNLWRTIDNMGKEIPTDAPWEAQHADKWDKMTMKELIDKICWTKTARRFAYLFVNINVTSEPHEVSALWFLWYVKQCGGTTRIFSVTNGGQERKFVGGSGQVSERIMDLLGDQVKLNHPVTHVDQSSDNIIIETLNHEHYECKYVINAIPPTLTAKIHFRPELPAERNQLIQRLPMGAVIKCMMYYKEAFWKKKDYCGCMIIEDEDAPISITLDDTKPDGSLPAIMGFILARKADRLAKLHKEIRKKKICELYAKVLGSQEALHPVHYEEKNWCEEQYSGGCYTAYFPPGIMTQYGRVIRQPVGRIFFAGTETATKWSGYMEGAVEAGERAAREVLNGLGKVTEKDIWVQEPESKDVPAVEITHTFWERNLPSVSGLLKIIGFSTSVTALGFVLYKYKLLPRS

PDE5 inhibition [1]: inhibitor
MAO-B activity inhibition (MAO-B): inhibited
MAO-A activity inhibition (MAO-A): inhibited
SMILES: COc1ccc(-c2oc3c(CC=C(C)C)c(O[C@@H]4O[C@H](CO)[C@@H](O)[C@H](O)[C@H]4O)cc(O)c3c(=O)c2O[C@@H]2O[C@@H](C)[C@H](O)[C@@H](O)[C@H]2O)cc1 [ICA, 7-(β-D-Glucopyranosyloxy)-5-hydroxy-4′-methoxy-8-(3-methylbut-2-en-1-yl)-3-(α-L-rhamnopyranosyloxy)flavone]
